Source: patent publication US20130225508A1, “PEPTIDE CAPABLE OF BINDING TO IMMUNOGLOBULIN” (priority 2010, published 2013)
Each block holds one molecule with its values, some of them ahead of it. No end group written: not given here.

What was measured:
Arthus reaction = assay: Type III allergic (Arthus) reaction-induced rat model, dye leakage; type: in vivo, Slc:Wistar rats; details: 50 mg/kg intraperitoneal; mean±SD
Description: Using forty-two 7-week-old male Slc:Wistar rats, examinations were made on test substance VII-2, with each of intraperitoneal administration and intravenous administration into tail vain. Acclimation was carried out by giving normal solid chow CRF-1 for a period of 6 days or longer. On the day prior to administration, the back of each animal was shaved. On the day of administration, a mixed solution of egg-white Ovalbumin (MP Biomedicals) (hereinafter referred to as “OVA”) and Evans blue dye was administered into the tail vein. […] The amount of dye leakage was quantified by measuring absorbance for the Evans blue dye with a spectrophotometer and using a calibration curve. […]
Several cuttings were made in the skin strips that had been punched out with a punch. […] The amount of dye leakage was calculated from a calibration curve of known amounts of the dye.
The mean value (mean)±standard deviation (SD) for each of the groups was calculated with respect to body-weight measurements and amounts of dye leakage. For amounts of dye leakage, the value for each of the animals was determined by subtracting the mean of the values obtained for the two sites of PBS administration from the mean of the values obtained for the two sites of administration of the anti-OVA solution. […]

[1] = test system: adjuvant-induced arthritis; assay: Adjuvant arthritis rat model; type: in vivo, Lewis/CrlCrlj rats; parameters: key to Redness scores (left hind-limb) / Redness scores (right hind-limb): 0 = no redness, 4 = severe redness; key to Scores of swelling in the instep (left hind-limb) / Scores of swelling in the instep (right hind-limb): 0 = no swelling, 4 = severe swelling; key to Scores of swelling in knuckle joints (left hind-limb) / Scores of swelling in knuckle joints (right hind-limb): 0 = no swelling, 4 = swelling of all the digits; details: 10 mg/kg oral from day 10
Source text: Male Lewis/CrlCrlj (SPF) rats were used to investigate the arthritis suppressing effect of a peptide of the present invention on adjuvant-induced arthritis. Forty-five rats were purchased from Charles River Laboratories Japan, Inc., and fed normal chow and allowed to acclimate for 7 days before used (the range of body weights was from 193.3 to 218.3 g at the beginning of use).
In an agate motor, dead tubercle bacilli (Mycobacterium butyricum; Lot No. 0260570, Difco) were pulverized. Then, liquid paraffin was added in small amounts to spread the pulverized bacilli well, so as to allow them to be emulsified at 1.0 mg/mL. The resultant emulsion was used after verification to ensure that the pulverized bacilli had been allowed to be finely emulsified, using an NM MICRONIZER (Nippon Seiki Co., Ltd.).
A right hind-limb of the respective rats was exposed, and 100 μL of the emulsion was intradermally injected once into a footpad of the right hind-limb using a 25G-needle attached syringe, to cause arthritis (day 0).
Each of the groups was comprised of 5 animals.
Arthritis was evaluated only for the hind-limbs, based on the criteria described below:
Score 0: no swelling Score 1: swelling of not more than two digits Score 2: swelling of three digits Score 3: swelling of four digits Score 4: swelling of all the digits
Score 0: no swelling Score 1: mild swelling Score 2: modest swelling Score 3: rather severe swelling Score 4: severe swelling
Score 0: no redness Score 1: mild redness Score 2: modest redness Score 3: rather severe redness Score 4: severe redness (iii) Measurement of Foot Volumes of Left And Right Hind-Limbs
Measurement was performed using a plethysmometer (UNICOM TK105). The increasing rate foot volume (percentage of paw swelling, paw swelling %) was calculated by the following formula:
Percent paw swelling (%)=[(Vt−Vo)/Vo]×100
In addition, in these examinations, the percent change of edema relative to day 10 post-adjuvant was calculated, in order to assess the effect of treatment with the test substances.
Data are expressed by mean±standard error. Since the uniformity of variance was not verified in testing between the negative and the positive control groups, testing for significant difference was performed by Aspin-Welch t-test. Since the uniformity of variance was not verified in testing for significant differences of the respective test-substance administered groups relative to the positive control group, assessment was performed by Dunnett's multiple comparison test after Kruskal-Wallis testing, using non-parametric procedures. Differences were considered to be statistically significant at p values of less than 0.05.

IL-1β in plasma = IL-1β in plasma of adjuvant arthritis rats (ELISA); type: in vivo, rat; details: day 21 post-adjuvant; 10 mg/kg oral from day 10
Description: (§1) TNF-α and IL-1β in plasma were measured in a double-point method using the TNF-α ELISA kit (Lbis® TNF-α-rat) and the IL-1β ELISA kit (Quantikine® Rat IL-1β/IL-1F2).
(§2) On day 21 post-adjuvant, the animals were subjected to autopsy, and plasma was prepared to measure IL-1β and TIN-α concentrations in plasma. In all the groups for which measurements were made, the concentration of TNF-α was below the detection limit (8 pg/mL).

TNF-α in plasma = TNF-α in plasma of adjuvant arthritis rats (ELISA); type: in vivo, rat; details: day 21 post-adjuvant; 10 mg/kg oral from day 10
Description: as §1, §2

[2] = Evaluation of solubility of peptides in water (PBS or physiological saline); type: physicochemical; details: solvent PBS or physiological saline
Description: Water solubility was evaluated for peptides in which various kinds of hydrophilic amino acid were substituted for the 4th and 5th amino acids which were verified in (1) to be allowed to be mutated. The peptides listed in Table 2 were synthesized by GL Biochem (Shanghai). Among the peptides listed in Table 2, peptides SP1 to SP7 are peptides in which various kinds of hydrophilic amino acid were substituted for the 4th and 5th amino acids.
In Table 3, the circle symbol is assigned to a peptide which was dissolved in a solvent (PBS or physiological saline) at a concentration of 10 mg/ml or higher, and the cross symbol is assigned to a peptide which was not dissolved at a concentration of 1 mg/ml. […] In the subsequent experiments, the peptides in which the 4th and 5th amino acids were substituted by hydrophilic amino acids were used.

Molecule: C[C@]12CCC(=O)C=C1CC[C@@H]1[C@@H]2[C@@H](O)C[C@@]2(C)[C@H]1CC[C@]2(O)C(=O)CO [Hydrocortisone]
amount of dye leakage (Evans blue) (Arthus reaction): 5.665±0.674 μg/animal

Molecule: Cc1oncc1C(=O)Nc1ccc(C(F)(F)F)cc1 [Reflumide]
Percent increase in foot volume relative to pre-adjuvant (left hind-limb) ([1]; Day 0 post-adjuvant): 0.00 ± 0.0%
Percent increase in foot volume relative to pre-adjuvant (right hind-limb) ([1]; Day 0 post-adjuvant): 0.00 ± 0.0%
Redness scores (left hind-limb) ([1]; Day 0 post-adjuvant): 0.0 ± 0.0
Redness scores (right hind-limb) ([1]; Day 0 post-adjuvant): 0.0 ± 0.0
Scores of swelling in knuckle joints (left hind-limb) ([1]; Day 0 post-adjuvant): 0.0 ± 0.0
Scores of swelling in knuckle joints (right hind-limb) ([1]; Day 0 post-adjuvant): 0.0 ± 0.0
Scores of swelling in the instep (left hind-limb) ([1]; Day 0 post-adjuvant): 0.0 ± 0.0
Scores of swelling in the instep (right hind-limb) ([1]; Day 0 post-adjuvant): 0.0 ± 0.0
Total scores (left hind-limb) ([1]; Day 0 post-adjuvant): 0.0 ± 0.0
Total scores (right hind-limb) ([1]; Day 0 post-adjuvant): 0.0 ± 0.0
Percent increase in foot volume relative to pre-adjuvant (left hind-limb) ([1]; Day 3 post-adjuvant): 13.28 ± 0.4%
Percent increase in foot volume relative to pre-adjuvant (right hind-limb) ([1]; Day 3 post-adjuvant): 13.33 ± 0.4%
Redness scores (left hind-limb) ([1]; Day 3 post-adjuvant): 0.0 ± 0.0
Redness scores (right hind-limb) ([1]; Day 3 post-adjuvant): 0.0 ± 0.0
Scores of swelling in knuckle joints (left hind-limb) ([1]; Day 3 post-adjuvant): 0.0 ± 0.0
Scores of swelling in knuckle joints (right hind-limb) ([1]; Day 3 post-adjuvant): 0.0 ± 0.0
Scores of swelling in the instep (left hind-limb) ([1]; Day 3 post-adjuvant): 0.0 ± 0.0
Scores of swelling in the instep (right hind-limb) ([1]; Day 3 post-adjuvant): 0.0 ± 0.0
Total scores (left hind-limb) ([1]; Day 3 post-adjuvant): 0.0 ± 0.0
Total scores (right hind-limb) ([1]; Day 3 post-adjuvant): 0.0 ± 0.0
Percent increase in foot volume relative to pre-adjuvant (left hind-limb) ([1]; Day 7 post-adjuvant): 18.56 ± 3.3%
Percent increase in foot volume relative to pre-adjuvant (right hind-limb) ([1]; Day 7 post-adjuvant): 26.75 ± 1.4%
Redness scores (left hind-limb) ([1]; Day 7 post-adjuvant): 0.4 ± 0.2
Redness scores (right hind-limb) ([1]; Day 7 post-adjuvant): 0.6 ± 0.2
Scores of swelling in knuckle joints (left hind-limb) ([1]; Day 7 post-adjuvant): 0.4 ± 0.2
Scores of swelling in knuckle joints (right hind-limb) ([1]; Day 7 post-adjuvant): 0.2 ± 0.2
Scores of swelling in the instep (left hind-limb) ([1]; Day 7 post-adjuvant): 0.4 ± 0.2
Scores of swelling in the instep (right hind-limb) ([1]; Day 7 post-adjuvant): 1.0 ± 0.0
Total scores (left hind-limb) ([1]; Day 7 post-adjuvant): 1.2 ± 1.6
Total scores (right hind-limb) ([1]; Day 7 post-adjuvant): 1.8 ± 0.5
Percent increase in foot volume relative to pre-adjuvant (left hind-limb) ([1]; Day 10 post-adjuvant): 22.94 ± 3.6%
Percent increase in foot volume relative to pre-adjuvant (right hind-limb) ([1]; Day 10 post-adjuvant): 49.75 ± 15.8%
Redness scores (left hind-limb) ([1]; Day 10 post-adjuvant): 0.8 ± 0.4
Redness scores (right hind-limb) ([1]; Day 10 post-adjuvant): 1.2 ± 0.2
Scores of swelling in knuckle joints (left hind-limb) ([1]; Day 10 post-adjuvant): 1.4 ± 0.4
Scores of swelling in knuckle joints (right hind-limb) ([1]; Day 10 post-adjuvant): 1.6 ± 0.6
Scores of swelling in the instep (left hind-limb) ([1]; Day 10 post-adjuvant): 0.6 ± 0.4
Scores of swelling in the instep (right hind-limb) ([1]; Day 10 post-adjuvant): 1.4 ± 0.4
Total scores (left hind-limb) ([1]; Day 10 post-adjuvant): 2.8 ± 1.4
Total scores (right hind-limb) ([1]; Day 10 post-adjuvant): 4.2 ± 1.5
Percent increase in foot volume relative to day 10 post-adjuvant (left hind-limb) ([1]; Day 14 post-adjuvant): −2.2 ± 1.6%
Percent increase in foot volume relative to day 10 post-adjuvant (right hind-limb) ([1]; Day 14 post-adjuvant): −1.3 ± 2.9^ %
Percent increase in foot volume relative to pre-adjuvant (left hind-limb) ([1]; Day 14 post-adjuvant): 20.13 ± 3.2%
Percent increase in foot volume relative to pre-adjuvant (right hind-limb) ([1]; Day 14 post-adjuvant): 46.22 ± 10.7%
Redness scores (left hind-limb) ([1]; Day 14 post-adjuvant): 0.4 ± 0.2
Redness scores (right hind-limb) ([1]; Day 14 post-adjuvant): 1.2 ± 0.2
Scores of swelling in knuckle joints (left hind-limb) ([1]; Day 14 post-adjuvant): 0.6 ± 0.4
Scores of swelling in knuckle joints (right hind-limb) ([1]; Day 14 post-adjuvant): 1.4 ± 0.4
Scores of swelling in the instep (left hind-limb) ([1]; Day 14 post-adjuvant): 0.2 ± 0.2
Scores of swelling in the instep (right hind-limb) ([1]; Day 14 post-adjuvant): 1.2 ± 0.2
Total scores (left hind-limb) ([1]; Day 14 post-adjuvant): 1.2 ± 1.0
Total scores (right hind-limb) ([1]; Day 14 post-adjuvant): 3.8 ± 1.0
Percent increase in foot volume relative to day 10 post-adjuvant (left hind-limb) ([1]; Day 17 post-adjuvant): 1.2 ± 6.3%
Percent increase in foot volume relative to day 10 post-adjuvant (right hind-limb) ([1]; Day 17 post-adjuvant): −3.4 ± 2.8%
Percent increase in foot volume relative to pre-adjuvant (left hind-limb) ([1]; Day 17 post-adjuvant): 24.18 ± 7.7%
Percent increase in foot volume relative to pre-adjuvant (right hind-limb) ([1]; Day 17 post-adjuvant): 43.17 ± 11.2%
Redness scores (left hind-limb) ([1]; Day 17 post-adjuvant): 0.6 ± 0.6
Redness scores (right hind-limb) ([1]; Day 17 post-adjuvant): 0.8 ± 0.2
Scores of swelling in knuckle joints (left hind-limb) ([1]; Day 17 post-adjuvant): 0.6 ± 0.4
Scores of swelling in knuckle joints (right hind-limb) ([1]; Day 17 post-adjuvant): 0.0 ± 0.0
Scores of swelling in the instep (left hind-limb) ([1]; Day 17 post-adjuvant): 0.2 ± 0.2
Scores of swelling in the instep (right hind-limb) ([1]; Day 17 post-adjuvant): 1.2 ± 0.2
Total scores (left hind-limb) ([1]; Day 17 post-adjuvant): 1.4 ± 1.5
Total scores (right hind-limb) ([1]; Day 17 post-adjuvant): 2.0 ± 0.0
Percent increase in foot volume relative to day 10 post-adjuvant (left hind-limb) ([1]; Day 21 post-adjuvant): −1.4 ± 6.1%
Percent increase in foot volume relative to day 10 post-adjuvant (right hind-limb) ([1]; Day 21 post-adjuvant): −5.9 ± 4.1%
Percent increase in foot volume relative to pre-adjuvant (left hind-limb) ([1]; Day 21 post-adjuvant): 20.93 ± 7.3%
Percent increase in foot volume relative to pre-adjuvant (right hind-limb) ([1]; Day 21 post-adjuvant): 38.93 ± 9.5%
Redness scores (left hind-limb) ([1]; Day 21 post-adjuvant): 0.6 ± 0.6
Redness scores (right hind-limb) ([1]; Day 21 post-adjuvant): 1.4 ± 0.4
Scores of swelling in knuckle joints (left hind-limb) ([1]; Day 21 post-adjuvant): 0.4 ± 0.4
Scores of swelling in knuckle joints (right hind-limb) ([1]; Day 21 post-adjuvant): 0.6 ± 0.6
Scores of swelling in the instep (left hind-limb) ([1]; Day 21 post-adjuvant): 0.4 ± 0.4
Scores of swelling in the instep (right hind-limb) ([1]; Day 21 post-adjuvant): 1.4 ± 0.4
Total scores (left hind-limb) ([1]; Day 21 post-adjuvant): 1.4 ± 1.8
Total scores (right hind-limb) ([1]; Day 21 post-adjuvant): 3.4 ± 1.8
Concentrations of IL-1β in plasma (IL-1β in plasma): 13.0 ± 2.5 pg/mL
Concentrations of TNF-α in plasma (TNF-α in plasma): N.D (N.D.: below detection limit)

solubility [2]: ≥ 10000 µg/mL
Molecule: PGLDHF [SP3, PGLDHF]

solubility [2]: ≥ 10000 µg/mL
Molecule: PGLDKF [SP1, PGLDKF]

solubility [2]: ≥ 10000 µg/mL
Molecule: PGLDRF [SP2, PGLDRF]

solubility [2]: ≥ 10000 µg/mL
Molecule: PGLEHF [SP6, PGLEHF]

solubility [2]: ≥ 10000 µg/mL
Molecule: PGLEKF [SP4, PGLEKF]

solubility [2]: ≥ 10000 µg/mL
Molecule: PGLERF [SP5, PGLERF]

solubility [2]: ≥ 10000 µg/mL
Molecule: PGLSSF [SP7, PGLSSF]

solubility [2]: < 1000 µg/mL
Molecule: PGLYYF [R1, PGLYYF]
